Experimental data published in patent publication US6737383B1, “Herbicidal oxadiazolidines” (priority 1999, dated 2004).

What was measured:
[1] = test system: wild oat; test: Test B pre/postemergence wild oat; format: in vivo, Avena fatua
Procedure, shortened: (§1)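 Response is a visual 0-to-10 score relative to untreated plants, where 0 means no effect and 10 means complete control, taken twelve to sixteen days after application. Treatments went onto soil at planting and onto foliage of 1- to 4-leaf plants, using a surfactant-containing non-phytotoxic solvent.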

[2] = test system: soybean; test: Test B pre/postemergence soybean; format: in vivo, Glycine max
Procedure, shortened: as §1

[3] = test system: pigweed; test: Test B pre/postemergence pigweed; format: in vivo, Amaranthus retroflexus
Procedure, shortened: as §1

[4] = test system: sugar beet; test: Test B pre/postemergence sugar beet; format: in vivo, Beta vulgaris
Procedure, shortened: as §1

[5] = test system: crabgrass; test: Test B pre/postemergence crabgrass; format: in vivo, Digitaria sanguinalis
Procedure, shortened: as §1

[6] = test system: purple nutsedge; test: Test B pre/postemergence purple nutsedge; format: in vivo, Cyperus rotundus
Procedure, shortened: as §1

[7] = test system: wheat; test: Test B pre/postemergence wheat; format: in vivo, Triticum aestivum
Procedure, shortened: as §1

[8] = test system: cocklebur; test: Test B pre/postemergence cocklebur; format: in vivo, Xanthium strumarium
Procedure, shortened: as §1

[9] = test system: corn; test: Test B pre/postemergence corn; format: in vivo, Zea mays
Procedure, shortened: as §1

[10] = test system: blackgrass; test: Test B pre/postemergence blackgrass; format: in vivo, Alopecurus myosuroides
Procedure, shortened: as §1

[11] = test system: velvetleaf; test: Test B pre/postemergence velvetleaf; format: in vivo, Abutilon theophrasti
Procedure, shortened: as §1

[12] = test system: bedstraw; test: Test B pre/postemergence bedstraw; format: in vivo, Galium aparine
Procedure, shortened: as §1

[13] = test system: morningglory; test: Test B pre/postemergence morningglory; format: in vivo, Ipomoea hederacea
Procedure, shortened: as §1

[14] = test system: surinam grass; test: Test B pre/postemergence surinam grass; format: in vivo, Brachiaria decumbens
Procedure, shortened: as §1

[15] = test system: rape; test: Test B pre/postemergence rape; format: in vivo, Brassica napus
Procedure, shortened: as §1

[16] = test system: giant foxtail; test: Test B pre/postemergence giant foxtail; format: in vivo, Setaria faberii
Procedure, shortened: as §1

[17] = Postemergence, Rate 62 g/ha, scale 0 to 10, 0 is no effect, 10 is complete control
[18] = Preemergence, Rate 125 g/ha, scale of 0 to 10 where 0 is no effect and 10 is complete control
[19] = Preemergence, Rate 250 g/ha, scale 0 (no effect) to 10 (complete control)
[20] = Rate 62 g/ha, Preemergence, scale 0 to 10
[21] = Rate 250 g/ha, Postemergence, scale 0 to 10, 0 is no effect, 10 is complete control
[22] = Rate 500 g/ha, Postemergence, scale 0 to 10, 0 is no effect, 10 is complete control
[23] = Rate 500 g/ha, Preemergence, scale 0 to 10 (0 no effect, 10 complete control)
[24] = Postemergence, Rate 125 g/ha, scale of 0 to 10 where 0 is no effect and 10 is complete control

Cc1nc(C(C)n2c(=O)on(C(=O)N(c3ccc(F)cc3)C(C)C)c2=O)sc1C (stereo not shown) [Compound 757]
Plant response rating, Wild oats [1, 17]: 0 | Plant response rating, Wild oats [1, 18]: 0 | Wild oats plant response rating [1, 19]: 2 | Wild oats plant response rating [1, 20]: 0 | Wild oats plant response rating [1, 21]: 0 | Wild oats plant response rating [1, 22]: 0 | Wild oats plant response rating [1, 23]: 5 | Plant response rating, Soybean [2, 17]: 3 | Plant response rating, Soybean [2, 18]: 0 | Soybean plant response rating [2, 19]: 0 | Soybean plant response rating [2, 20]: 0 | Soybean plant response rating [2, 21]: 4 | Soybean plant response rating [2, 22]: 4 | Soybean plant response rating [2, 23]: 0 | Plant response rating, Redroot pigweed [3, 17]: 1 | Redroot pigweed plant response rating [3, 24]: 3 | Plant response rating, Redroot pigweed [3, 18]: 0 | Redroot pigweed plant response rating [3, 19]: 2 | Redroot pigweed plant response rating [3, 20]: 0 | Redroot pigweed plant response rating [3, 21]: 5 | Redroot pigweed plant response rating [3, 22]: 7 | Redroot pigweed plant response rating [3, 23]: 3 | Plant response rating, Sugarbeets [4, 17]: 0 | Plant response rating, Sugarbeets [4, 18]: 0 | Sugarbeets plant response rating [4, 19]: 0 | Sugarbeets plant response rating [4, 20]: 0 | Sugarbeets plant response rating [4, 21]: 3 | Sugarbeets plant response rating [4, 22]: 3 | Sugarbeets plant response rating [4, 23]: 0 | Plant response rating, Crabgrass [5, 17]: 3 | Crabgrass plant response rating [5, 24]: 4 | Plant response rating, Crabgrass [5, 18]: 9 | Crabgrass plant response rating [5, 19]: 9 | Crabgrass plant response rating [5, 20]: 6 | Crabgrass plant response rating [5, 21]: 6 | Crabgrass plant response rating [5, 22]: 6 | Crabgrass plant response rating [5, 23]: 9 | Plant response rating, Nutsedge [6, 17]: 0 | Nutsedge plant response rating [6, 24]: 0 | Plant response rating, Nutsedge [6, 18]: 0 | Nutsedge plant response rating [6, 19]: 0 | Nutsedge plant response rating [6, 20]: 0 | Nutsedge plant response rating [6, 21]: 0 | Nutsedge plant response rating [6, 22]: 0 | Nutsedge plant response rating [6, 23]: 0 | Plant response rating, Wheat [7, 17]: 0 | Plant response rating, Wheat [7, 18]: 0 | Wheat plant response rating [7, 19]: 0 | Wheat plant response rating [7, 20]: 0 | Wheat plant response rating [7, 21]: 0 | Wheat plant response rating [7, 22]: 0 | Wheat plant response rating [7, 23]: 3 | Plant response rating, Cocklebur [8, 17]: 0 | Cocklebur plant response rating [8, 24]: 0 | Plant response rating, Cocklebur [8, 18]: 0 | Cocklebur plant response rating [8, 19]: 0 | Cocklebur plant response rating [8, 20]: 0 | Cocklebur plant response rating [8, 21]: 2 | Cocklebur plant response rating [8, 22]: 2 | Cocklebur plant response rating [8, 23]: 0 | Plant response rating, Corn [9, 17]: 0 | Corn plant response rating [9, 24]: 0 | Plant response rating, Corn [9, 18]: 0 | Corn plant response rating [9, 19]: 0 | Corn plant response rating [9, 20]: 0 | Corn plant response rating [9, 21]: 0 | Corn plant response rating [9, 22]: 0 | Corn plant response rating [9, 23]: 0 | Plant response rating, Blackgrass [10, 17]: 0 | Blackgrass plant response rating [10, 24]: 0 | Plant response rating, Blackgrass [10, 18]: 2 | Blackgrass plant response rating [10, 19]: 3 | Blackgrass plant response rating [10, 20]: 1 | Blackgrass plant response rating [10, 21]: 3 | Blackgrass plant response rating [10, 22]: 4 | Blackgrass plant response rating [10, 23]: 7 | Plant response rating, Velvetleaf [11, 17]: 0 | Plant response rating, Velvetleaf [11, 18]: 0 | Velvetleaf plant response rating [11, 19]: 0 | Velvetleaf plant response rating [11, 20]: 0 | Velvetleaf plant response rating [11, 21]: 3 | Velvetleaf plant response rating [11, 22]: 4 | Velvetleaf plant response rating [11, 23]: 0 | Bedstraw plant response rating [12, 24]: 0 | Plant response rating, Bedstraw [12, 18]: 0 | Bedstraw plant response rating [12, 19]: 0 | Bedstraw plant response rating [12, 20]: 0 | Bedstraw plant response rating [12, 21]: 0 | Bedstraw plant response rating [12, 23]: 0 | Plant response rating, Morningglory [13, 17]: 6 | Morningglory plant response rating [13, 24]: 6 | Plant response rating, Morningglory [13, 18]: 0 | Morningglory plant response rating [13, 19]: 0 | Morningglory plant response rating [13, 20]: 0 | Morningglory plant response rating [13, 21]: 7 | Morningglory plant response rating [13, 22]: 9 | Morningglory plant response rating [13, 23]: 0 | Plant response rating, B. signalgrass [14, 17]: 0 | B. signalgrass plant response rating [14, 24]: 0 | B. signalgrass plant response rating ([14]; Preemergence, Rate 62 g/ha, scale of 0 to 10 where 0 is no effect and 10 is complete control): 0 | Plant response rating, B. signalgrass [14, 18]: 0 | B. signalgrass plant response rating [14, 19]: 2 | B. signalgrass plant response rating [14, 21]: 0 | B. signalgrass plant response rating [14, 22]: 1 | B. signalgrass plant response rating [14, 23]: 7 | Plant response rating, Rape [15, 17]: 0 | Rape plant response rating [15, 24]: 0 | Plant response rating, Rape [15, 18]: 0 | Rape plant response rating [15, 19]: 0 | Rape plant response rating [15, 20]: 0 | Rape plant response rating [15, 21]: 0 | Rape plant response rating [15, 22]: 0 | Rape plant response rating [15, 23]: 0 | Plant response rating, Giant foxtail [16, 17]: 2 | Giant foxtail plant response rating [16, 24]: 2 | Plant response rating, Giant foxtail [16, 18]: 9 | Giant foxtail plant response rating [16, 19]: 9 | Giant foxtail plant response rating [16, 20]: 9 | Giant foxtail plant response rating [16, 21]: 5 | Giant foxtail plant response rating [16, 22]: 7 | Giant foxtail plant response rating [16, 23]: 9
